Results on seven compounds are retold here after PMC7529580, “Modified heptapeptide from tau binds both tubulin and microtubules” (Thoracic Cancer, 2020).

As a reminder, the Kd is the concentration at which binding is half-saturated.

Experiment [1] has as its system microtubules in HeLa cells. Nature of the experiment: Living cell assay: tracing of microtubules. It is filed as cell-based. Conditions: 15 μM peptide, 30 minutes, Hoechst 33258, fluorescence microscope. The method, then: (§1) HeLa cells were cultured in Dulbecco's modified Eagle's medium supplemented with 10% fetal bovine serum and maintained at 37°C in a humidified 5% CO2 environment. The peptide was added into the Hela cells, and incubated for 30 minutes. The nuclei were stained with Hoechst 33258 (Beyotime). Cells were imaged with a fluorescence microscope (Leica, Germany).  Figure 4 Examination of the peptide in tracing microtubules in living cells. HeLa cells were treated with 15 μM of the peptide or control peptide, together with Hoechst 33258, and 30 minutes later, the cells were imaged with a fluorescence microscope. Scale bar: 5 μm.

In a further experiment the test system is HeLa cells. Nature of the experiment: Living cell assay: entry of peptide into cells. It is filed as cell-based. Conditions: 15 μM peptide, 30 minutes, Hoechst 33258, fluorescence microscope. The method, then:
as §1

The test system of a further experiment is polymerized microtubules. The experiment in a line: Labeling of polymerized microtubules in solution (fluorescence microscopy). It is filed as binding. The following applies: 1 μM peptide added to polymerized rhodamine‐labeled microtubules, five minutes incubation, fluorescence microscope. The method, then:
(§2) Tubulin from HeLa cells was purified using a TOG‐based affinity column. ^20 Briefly, cells were resuspended in an equal volume of BRB80 buffer containing 3 μL of benzonase and 1 mM DTT. Cells were lysed on ice and centrifuged at 40 000 rpm for 30 minutes at 4°C. The supernatant was filtered through a 0.45 μm Milliex‐HV polyvinylidene fluoride membrane, and then loaded into a TOG column preequilibrated with BRB80 buffer. The tubulin was eluted with BRB80 buffer, and the crude extract was further purified through the cycle of polymerization and depolymerization as previously described. ^22
Rhodamine‐labeled tubulin (5%) was mixed into tubulin purified from HeLa cells in the PEMG buffer (100 mM PIPES, 1 mM EGTA, 1 mM MgSO4, 1 mM GTP, pH 6.8). Next, the mixture was placed on ice for five minutes and then incubated at 37°C for 30 minutes. The polymerized reaction was terminated by adding 400 μL of PEMG buffer. […] The pellet was resuspended with 300 μL of the PEMG buffer supplemented with 20 μM paclitaxel and then added into a slide chamber for imaging under a fluorescence microscope.
Figure 3 The peptide was able to label the microtubules in solution. (a) The tubulin was purified from HeLa cells through cycle process, and the purity was determined by SDS‐PAGE. […] After five minutes incubation, the microtubule was imaged under a fluorescence microscope. […]

The next experiment has as its system tubulin dimers. Nature of the experiment: Microscale thermophoresis affinity determination. The format is binding. Conditions: 1 μM peptide, series dilution of tubulin. The method, then:
All microscale thermophoresis measurements were performed using Monolith NTTM hydrophobic capillaries and a Monolith NT.115 instrument (NanoTemper) according to the manufacturer's instructions. The peptide was prepared with varying concentrations for pretest to ensure final proper concentration. The fluorescence intensity value should be more than 200. A series of dilution of the tubulin dimers was then added into the capillaries. The affinity of the peptide to tubulin dimers was examined using the Monolith NT.115 instrument.
as §2
Figure 2 Affinity determination of the peptide to tubulin. 1 μM of the peptide and a series dilution of tubulin were added into the capillary tube, and the fluorescence intensity was then determined by a Monolith NT.115 instrument.
Background: In MST a laser heats a spot of the sample, and binding alters the fluorescence response.

Experiment [2] has as its system microtubules in living cells. The following applies: cited from earlier work; for labeling of microtubules in living cells (in words): microtubule‐targeting agents. The source says:
The property of microtubules is regulated by a number of microtubule‐binding proteins, ^8 , ^9 , ^10 , ^11 , ^12 , ^13 of which tau is well‐characterized because of its abundance, particularly in brain tissues. ^14 , ^15 , ^16 The N‐terminus of tau is a projection domain, followed by a proline‐rich region and a C‐terminal microtubule‐assembly domain. ^17 The microtubule‐assembly domain, which contains four imperfect sequence repeats, is responsible for the binding of tau to microtubules. […] In this study, we tested another tau‐derived peptide for its ability to monitor microtubules.

In experiment [3] the target is fluorescent tau-derived peptide (FITC-Ahx-(rR)3R2-GGG-KKVAVVR). The experiment in a line: MST; 1 μM of the fluorescent peptide constant, a series dilution of tubulin dimers; Monolith NT.115, hydrophobic capillaries.
The next experiment has as its system microtubules. Set-up: method as in 2 sources, ref 26 = [26]; PMID 9190213; doi:10.1091/mbc.8.2.353; 26 Goode BL , Denis PE , Panda D et al Functional interactions between the proline‐rich and repeat regions of tau enhance microtubule binding and assembly . Mol Biol Cell 1997; 8 : 353 – 65 . 9190213 ||| ref 27 = [27]; PMID 19186939; doi:10.1021/bm801224q; 27 Cao B , Mao C . Identification of microtubule‐binding domains on microtubule‐associated proteins by major coat phage display technique . Biomacromolecules 2009; 10 : 555 – 64 . 19186939 10.1021/bm. Conditions: cited from earlier work.

“Also recorded” adds a separate entry of the source. Like-named read-outs stand apart in the source and are kept apart here. Non-standard residues stand in square brackets, D forms with d. No end group written: not given here. *: point of attachment. FITC = O=C1OC2(c3ccc(O)cc3Oc3cc(O)ccc32)c2ccc(NC(=S)*)cc21; Ahx = NCCCCCC(=O)O

On to “tau‐derived peptide: FITC dye, cell‐penetrating peptide (rR)3R2, spacer (GGG), microtubule recognition unit (KKVAVVR), with aminohexanoic (Ahx) acid ({FITC-Ahx}-[dR]R[dR]R[dR]RRRGGGKKVAVVR)”, for which, in experiment [1], the “tracing of microtubule filaments in living cells (in words)” value is on record as “no clear microtubule filaments were observed”. Moreover, in the experiment on HeLa cells, the “entry into living cells (in words)” value is “delivered successfully into HeLa cells”. The “labeling of microtubules in solution / binding to microtubules (in words)” value in the experiment with polymerized microtubules (listed as modified heptapeptide from tau) is “binds microtubules specifically and noncovalently”; in the experiment with polymerized microtubules (listed as the peptide), “able to successfully label the microtubules in solution”. The “binding to tubulin dimers (in words)” value is “specifically bound to tubulin” in the experiment with tubulin dimers and “bound tubulin dimers in a dose‐dependent manner; also recorded: relatively low affinity” in the experiment on tubulin dimers (listed as the peptide). For the same compound, at tubulin dimers (Monolith NT.115, hydrophobic capillaries), the “disassociation constant (Kd) of the peptide with tubulin” value was found to be 4.68 ± 0.08 µM.
Consider `COc1cc2c(c(OC)c1OC)-c1ccc(OC)c(=O)cc1[C@@H](NC(C)=O)CC2` [colchicine], for which, in experiment [2], the “labeling of microtubules in living cells (in words)” value is recorded as “able to label microtubules in living cells”.
With “tubulin dimers purified from HeLa cells (from UniProt P68363 1-451; P07437 1-444) (complex)”, the Kd in experiment [3] amounted to 4.68 µM.
Take `CC(=O)O[C@H]1C(=O)[C@@]2(C)[C@H]([C@H](OC(=O)c3ccccc3)[C@]3(O)C[C@H](OC(=O)[C@H](O)[C@@H](NC(=O)c4ccccc4)c4ccccc4)C(C)=C1C3(C)C)[C@]1(OC(C)=O)CO[C@@H]1C[C@@H]2O` [taxol]: the “labeling of microtubules in living cells (in words)” value in experiment [2] is listed as “able to label microtubules in living cells”.
On to KKVAVVRTPP, for which the “microtubule binding (in words)” value in the experiment on microtubules (peptide with VxxVxxP motif) is reported as “able to bind microtubules”.
As to `N=C(N)c1ccc(-c2cc3ccc(C(=N)N)cc3[nH]2)cc1` [4',6‐diamidino‐2‐phenylindole (DAPI), 4',6‐diamidino‐2‐phenylindole], in experiment [2] (due to the lack of specificity and the complexity of cellular contents), the “tracing microtubules in living cells (in words)” value is listed as “unable to trace microtubules in living cells”.
Take KKVAVVR: in the experiment on microtubules (small sequence within the proline‐rich region of tau), the “microtubule binding (in words)” value is reported as “critical for efficient microtubule binding”.
